# Laboratory results from patent publication US6992079B2, “Substituted 11-phenyl-dibenzazepine compounds useful for the treatment or prevention of diseases characterized by abnormal cell proliferation” (President Fellows of Harvard College, priority 1997, dated 2006).
# What was measured:
# SR = assay: In-Vitro Testing SRB panel: Leukemia; format: cell-based
# T-47D = assay: In-Vitro Testing SRB panel: Breast Cancer; format: cell-based
# OVCAR-8 = assay: In-Vitro Testing SRB panel: Ovarian Cancer; format: cell-based
# [1] = test system: H209 small lung cell carcinoma; assay: Mouse xenograft tumor growth; format: in vivo, SCID mice
# U251 = assay: In-Vitro Testing SRB panel: CNS Cancer; format: cell-based
# [2] = test system: SU.86.86 pancreatic adenocarcinoma; assay: Mouse xenograft tumor growth; format: in vivo, nude mice; conditions: SU.86.86 pancreatic adenocarcinoma mouse xenograft
# K-562 = assay: In-Vitro Testing SRB panel: Leukemia; format: cell-based
# HT29 = assay: SRB antiproliferative assay; format: cell-based; conditions: Homo sapiens, HT-29, HT29 (Colon), 5% FCS/5 day incubation
# Description: (§1) The cells were passaged using Trypsin (Gibco).
# HEPG2 = assay: SRB antiproliferative assay; format: cell-based; conditions: Homo sapiens, HepG2, HEPG2 (Hepatocel), 5% FCS/5 day incubation
# Description: as §1
# HeLa = assay: SRB antiproliferative assay; format: cell-based; conditions: Homo sapiens, HeLa (Cervical), 5% FCS/5 day incubation
# Description: as §1
# A549 = assay: SRB antiproliferative assay; format: cell-based; conditions: Homo sapiens, A549, A549 (Lung), 5% FCS/5 day incubation
# Description: as §1
# U118MG = assay: SRB antiproliferative assay; format: cell-based; conditions: Homo sapiens, U-118-MG, U118MG (CNS), 5% FCS/5 day incubation
# Description: as §1
# MCF7 = assay: SRB antiproliferative assay; format: cell-based; conditions: Homo sapiens, MCF7, MCF7 (Breast), 5% FCS/5 day incubation
# Description: as §1
# COLO 205 = assay: In-Vitro Testing SRB panel: Colon Cancer; format: cell-based
# SF-539 = assay: In-Vitro Testing SRB panel: CNS Cancer; format: cell-based
# 786-0 = assay: In-Vitro Testing SRB panel: Renal Cancer; format: cell-based
# KM12 = assay: In-Vitro Testing SRB panel: Colon Cancer; format: cell-based
# SW-620 = assay: In-Vitro Testing SRB panel: Colon Cancer; format: cell-based
# UACC-62 = assay: In-Vitro Testing SRB panel: Melanoma; format: cell-based
# OVCAR-3 = assay: In-Vitro Testing SRB panel: Ovarian Cancer
smiles,measurement,setting,value
COc1ccc2c(c1)CN(C(=O)c1ccc([N+](=O)[O-])cc1)c1ccc(Cl)cc1C2c1ccccc1Cl (centres unmarked) [Compound 30],TGI,SR,>1.00E−04 Molar
same,GI50,SR; Homo sapiens,0.455 µM
same,CC50,"SR; Homo sapiens, read-out: LC50 (the source's name)",> 100 µM
same,Percent Growth,SR; Log10 concentration −4.0 Molar,23%
same,Percent Growth,SR; Log10 concentration −5.0 Molar,12%
same,Percent Growth,SR; Log10 concentration −6.0 Molar,32%
same,Percent Growth,SR; Log10 concentration −7.0 Molar,85%
same,Percent Growth,SR; Log10 concentration −8.0 Molar,77%
same,GI50,"T-47D; Homo sapiens, T47D",2.87 µM
same,CC50,"T-47D; Homo sapiens, T47D, T-47D, read-out: LC50 (the source's name)",> 100 µM
same,TGI,T-47D; T-47D,>1.00E−04 Molar
same,Percent Growth,"T-47D; T-47D, Log10 concentration −4.0 Molar",18%
same,Percent Growth,"T-47D; T-47D, Log10 concentration −5.0 Molar",23%
same,Percent Growth,"T-47D; T-47D, Log10 concentration −6.0 Molar",71%
same,Percent Growth,"T-47D; T-47D, Log10 concentration −7.0 Molar",96%
same,Percent Growth,"T-47D; T-47D, Log10 concentration −8.0 Molar",92%
same,GI50,"OVCAR-8; Homo sapiens, OVCAR-8",7.72 µM
same,CC50,"OVCAR-8; Homo sapiens, OVCAR-8, read-out: LC50 (the source's name)",> 100 µM
same,TGI,OVCAR-8; OVCAR-8,>1.00E−04 Molar
same,Percent Growth,"OVCAR-8; OVCAR-8, Log10 concentration −4.0 Molar",48%
same,Percent Growth,"OVCAR-8; OVCAR-8, Log10 concentration −5.0 Molar",46%
same,Percent Growth,"OVCAR-8; OVCAR-8, Log10 concentration −6.0 Molar",84%
same,Percent Growth,"OVCAR-8; OVCAR-8, Log10 concentration −7.0 Molar",95%
same,Percent Growth,"OVCAR-8; OVCAR-8, Log10 concentration −8.0 Molar",96%
same,tumor growth,[1],showed inhibition of tumor growth
same,GI50,"U251; Homo sapiens, U-251",5.1 µM
same,CC50,"U251; Homo sapiens, U-251, U251, read-out: LC50 (the source's name)",> 100 µM
same,TGI,U251; U251,>1.00E−04 Molar
same,Percent Growth,"U251; U251, Log10 concentration −4.0 Molar",37%
same,Percent Growth,"U251; U251, Log10 concentration −5.0 Molar",37%
same,Percent Growth,"U251; U251, Log10 concentration −6.0 Molar",81%
same,Percent Growth,"U251; U251, Log10 concentration −7.0 Molar",103%
same,Percent Growth,"U251; U251, Log10 concentration −8.0 Molar",94%
same,tumor growth,[2],showed inhibition of tumor growth
same,GI50,"K-562; Homo sapiens, K562",1.33 µM
same,CC50,"K-562; Homo sapiens, K562, K-562, read-out: LC50 (the source's name)",> 100 µM
same,TGI,K-562; K-562,>1.00E−04 Molar
same,Percent Growth,"K-562; K-562, Log10 concentration −4.0 Molar",17%
same,Percent Growth,"K-562; K-562, Log10 concentration −5.0 Molar",24%
same,Percent Growth,"K-562; K-562, Log10 concentration −6.0 Molar",54%
same,Percent Growth,"K-562; K-562, Log10 concentration −7.0 Molar",86%
same,Percent Growth,"K-562; K-562, Log10 concentration −8.0 Molar",99%
same,IC50,HT29,0.6 µM
same,IC50,HEPG2,0.9 µM
same,IC50,HeLa,0.5 µM
same,IC50,A549,1.5 µM
same,IC50,U118MG,0.8 µM
same,IC50,MCF7,1.3 µM
same,TGI,COLO 205; COLO 205,>1.00E−04 Molar
same,Percent Growth,"COLO 205; COLO 205, Log10 concentration −4.0 Molar",43%
same,Percent Growth,"COLO 205; COLO 205, Log10 concentration −5.0 Molar",46%
same,Percent Growth,"COLO 205; COLO 205, Log10 concentration −6.0 Molar",68%
same,Percent Growth,"COLO 205; COLO 205, Log10 concentration −7.0 Molar",87%
same,Percent Growth,"COLO 205; COLO 205, Log10 concentration −8.0 Molar",93%
same,GI50,"COLO 205; Homo sapiens, COLO 205",6.64 µM
same,CC50,"COLO 205; Homo sapiens, COLO 205, read-out: LC50 (the source's name)",> 100 µM
same,GI50,"SF-539; Homo sapiens, SF-539",3.87 µM
same,CC50,"SF-539; Homo sapiens, SF-539, read-out: LC50 (the source's name)",> 100 µM
same,TGI,SF-539; SF-539,>1.00E−04 Molar
same,Percent Growth,"SF-539; SF-539, Log10 concentration −4.0 Molar",20%
same,Percent Growth,"SF-539; SF-539, Log10 concentration −5.0 Molar",33%
same,Percent Growth,"SF-539; SF-539, Log10 concentration −6.0 Molar",75%
same,Percent Growth,"SF-539; SF-539, Log10 concentration −7.0 Molar",92%
same,Percent Growth,"SF-539; SF-539, Log10 concentration −8.0 Molar",93%
same,TGI,786-0; 786-0,>1.00E−04 Molar
same,Percent Growth,"786-0; 786-0, Log10 concentration −4.0 Molar",28%
same,Percent Growth,"786-0; 786-0, Log10 concentration −5.0 Molar",11%
same,Percent Growth,"786-0; 786-0, Log10 concentration −6.0 Molar",92%
same,Percent Growth,"786-0; 786-0, Log10 concentration −7.0 Molar",98%
same,Percent Growth,"786-0; 786-0, Log10 concentration −8.0 Molar",98%
same,GI50,"786-0; Homo sapiens, 786-0",3.28 µM
same,CC50,"786-0; Homo sapiens, 786-0, read-out: LC50 (the source's name)",> 100 µM
same,GI50,"KM12; Homo sapiens, KM12",3.06 µM
same,CC50,"KM12; Homo sapiens, KM12, RM12, read-out: LC50 (the source's name)",> 100 µM
same,TGI,KM12; RM12,>1.00E−04 Molar
same,Percent Growth,"KM12; RM12, Log10 concentration −4.0 Molar",36%
same,Percent Growth,"KM12; RM12, Log10 concentration −5.0 Molar",41%
same,Percent Growth,"KM12; RM12, Log10 concentration −6.0 Molar",59%
same,Percent Growth,"KM12; RM12, Log10 concentration −7.0 Molar",91%
same,Percent Growth,"KM12; RM12, Log10 concentration −8.0 Molar",95%
same,GI50,"SW-620; Homo sapiens, SW-620",> 100 µM
same,CC50,"SW-620; Homo sapiens, SW-620, read-out: LC50 (the source's name)",> 100 µM
same,TGI,SW-620; SW-620,>1.00E−04 Molar
same,Percent Growth,"SW-620; SW-620, Log10 concentration −4.0 Molar",56%
same,Percent Growth,"SW-620; SW-620, Log10 concentration −5.0 Molar",57%
same,Percent Growth,"SW-620; SW-620, Log10 concentration −6.0 Molar",87%
same,Percent Growth,"SW-620; SW-620, Log10 concentration −7.0 Molar",99%
same,Percent Growth,"SW-620; SW-620, Log10 concentration −8.0 Molar",102%
same,GI50,"UACC-62; Homo sapiens, UACC-62",> 100 µM
same,CC50,"UACC-62; Homo sapiens, UACC-62, read-out: LC50 (the source's name)",> 100 µM
same,TGI,UACC-62; UACC-62,>1.00E−04 Molar
same,Percent Growth,"UACC-62; UACC-62, Log10 concentration −4.0 Molar",56%
same,Percent Growth,"UACC-62; UACC-62, Log10 concentration −5.0 Molar",52%
same,Percent Growth,"UACC-62; UACC-62, Log10 concentration −6.0 Molar",58%
same,Percent Growth,"UACC-62; UACC-62, Log10 concentration −7.0 Molar",93%
same,Percent Growth,"UACC-62; UACC-62, Log10 concentration −8.0 Molar",97%
same,GI50,"OVCAR-3; Homo sapiens, OVCAR-3",10.2 µM
same,CC50,"OVCAR-3; Homo sapiens, OVCAR-3, read-out: LC50",> 100 µM
same,TGI,OVCAR-3; OVCAR-3,>1.00E−04 Molar
same,Percent Growth,"OVCAR-3; OVCAR-3, Log10 concentration −4.0 Molar",43%
same,Percent Growth,"OVCAR-3; OVCAR-3, Log10 concentration −5.0 Molar",50%
same,Percent Growth,"OVCAR-3; OVCAR-3, Log10 concentration −6.0 Molar",89%
same,Percent Growth,"OVCAR-3; OVCAR-3, Log10 concentration −7.0 Molar",105%
same,Percent Growth,"OVCAR-3; OVCAR-3, Log10 concentration −8.0 Molar",95%
